Results: ChEMBL document CHEMBL1201862, “PubChem BioAssay data set” (2004)
Where “and” joins values, the source holds several entries; their conditions need not be identical. Identical values can stand only once.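 Exposure lasted 48 hours, with cells grown in 96-well plates and compounds tested at five concentrations. Here, GI50 denotes the concentration required for 50% inhibition of growth.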 Calls of active or inactive are those of the source. Cut-off read from the data, not from the text of the source: active = GI50 up to about 1.1 µM and inactive = higher.

Key:
Test in all cases: growth of human tumour cells (NCI), 48 h
[1] = test system: U-251
[2] = test system: NCI-H460
[3] = test system: SF-295
[4] = test system: 786-0
[5] = test system: SNB-19
[6] = test system: MOLT-4
[7] = test system: PC-3
[8] = test system: HCT-15
[9] = test system: HT-29
[10] = test system: SK-MEL-2
[11] = test system: NCI-H226
[12] = test system: UACC-62
[13] = test system: K562
[14] = test system: MCF7
[15] = test system: NCI-H23
[16] = test system: LOX IMVI
[17] = test system: SNB-75

Row | Structure (SMILES) | GI50 [1] | GI50 [2] | GI50 [3] | GI50 [4] | GI50 [5] | GI50 [6] | GI50 [7] | GI50 [8] | GI50 [9] | GI50 [10] | GI50 [11] | GI50 [12] | GI50 [13] | GI50 [14] | GI50 [15] | GI50 [16] | GI50 [17]
1 | C=CC(=O)N1C/C(=C\c2ccc([N+](=O)[O-])cc2)C(=O)/C(=C/c2ccc([N+](=O)[O-])cc2)C1 | 0.0697 µM (active) | 0.147 µM (active) | 0.208 µM (active) | < 0.0203 µM (active) | 1.16 µM (inactive) | 0.0791 µM (active) | 0.0698 µM (active) | 0.0253 µM | < 0.0176 µM (active) | 0.43 µM (active) | 0.2 µM (active) | 0.21 µM (active) | 0.0982 µM (active) | < 0.0243 µM (active) | 0.256 µM (active) | < 0.0179 µM (active) | –
2 | COc1cc(C2C(C#N)=C(N)OC3=C2CCS(=O)(=O)c2ccc(C)cc23)cc(OC)c1OC (configuration not stated) | > 100 µM (inactive) | > 100 µM (inactive) | – | > 100 µM (inactive) | > 100 µM (inactive) | – | > 100 µM (inactive) | > 100 µM | > 100 µM (inactive) | > 100 µM (inactive) | > 100 µM (inactive) | > 100 µM (inactive) | > 100 µM (inactive) | – | > 100 µM (inactive) | > 100 µM (inactive) | > 100 µM (inactive)
3 | O=C(O)c1cccc(CN2CCCCC2)c1 | > 100 µM (inactive) | > 100 µM (inactive) | > 100 µM (inactive) | > 100 µM (inactive) | > 100 µM (inactive) | > 100 µM (inactive) | > 100 µM (inactive) | > 100 µM | > 100 µM (inactive) | > 100 µM (inactive) | > 100 µM (inactive) | > 100 µM (inactive) | > 100 µM (inactive) | > 100 µM (inactive) | > 100 µM (inactive) | > 100 µM (inactive) | –
4 | C=C1C(=O)OC2CC1C(OC(C)=O)C/C(C)=C/CC/C(C)=C\CCC2(C)O (configuration not stated) | 10.7 µM (inactive) and 10.3 µM (inactive) | 2.11 µM (inactive) and 3.41 µM (inactive) | 21.3 µM (inactive) and 17.2 µM (inactive) | 3.24 µM (inactive) and 2.6 µM (inactive) | 17.3 µM (inactive) and 15.1 µM (inactive) | 2.22 µM (inactive) and 1.88 µM (inactive) | – | 1.56 µM and 3.04 µM | – | – | – | – | 1.39 µM (inactive) and 2.54 µM (inactive) | 3.8 µM (inactive) and 3.74 µM (inactive) | – | 2.46 µM (inactive) and 2.14 µM (inactive) | 11.2 µM (inactive) and 10.8 µM (inactive)
5 | S=C1/C(=N/c2ccccc2)N(c2ccccc2)/C(=N\c2ccccn2)N1c1ccccc1 | 15.8 µM (inactive) | 13.6 µM (inactive) | 16.3 µM (inactive) | 14.5 µM (inactive) | 16.3 µM (inactive) | > 100 µM (inactive) | 12.8 µM (inactive) | 8.18 µM | 11 µM (inactive) | 11.9 µM (inactive) | 18.2 µM (inactive) | 2.77 µM (inactive) | > 100 µM (inactive) | – | 12.3 µM (inactive) | 6.61 µM (inactive) | 14.7 µM (inactive)
6 | CN(C(=O)Cc1cc(Cl)c(Cl)cc1NC(=O)CCCN)[C@H]1CCCC[C@@H]1N1CCCC1 | 19.3 µM (inactive) | – | 58.2 µM (inactive) | 19.5 µM (inactive) | 19.8 µM (inactive) | 60.8 µM (inactive) | 40.3 µM (inactive) | > 100 µM | 20.5 µM (inactive) | 21.9 µM (inactive) | 27 µM (inactive) | 19.8 µM (inactive) | > 100 µM (inactive) | 20.1 µM (inactive) | > 100 µM (inactive) | 18.6 µM (inactive) | –
7 | N=C(c1ccc2ccccc2c1)c1ccccc1Cc1ccccc1 | 35.9 µM (inactive) | 33.6 µM (inactive) | 32.2 µM (inactive) | 54.6 µM (inactive) | > 100 µM (inactive) | 21.7 µM (inactive) | 51.6 µM (inactive) | 28.8 µM | 16.4 µM (inactive) | 18.2 µM (inactive) | 28 µM (inactive) | 43.3 µM (inactive) | 29.9 µM (inactive) | 33.5 µM (inactive) | 41.7 µM (inactive) | 45.6 µM (inactive) | –
8 | Cc1n[nH]c(C(F)(F)F)c1/N=N/N(C)C | 11 µM (inactive) | 10.5 µM (inactive) | 12.1 µM (inactive) | 1.24 µM (inactive) | 15.1 µM (inactive) | 2.48 µM (inactive) | 11.1 µM (inactive) | 7.26 µM | 4.98 µM (inactive) | 17.2 µM (inactive) | 1.95 µM (inactive) | 6.81 µM (inactive) | 2.93 µM (inactive) | 3.5 µM (inactive) | 5.73 µM (inactive) | 1.47 µM (inactive) | –
9 | COc1ccc2c(c1)CC1Cc3cc(OC)c(OC)cc3CN1CC2 (configuration not stated) | 49.5 µM (inactive) | 23 µM (inactive) | 32.7 µM (inactive) | 27.2 µM (inactive) | 35.3 µM (inactive) | 24 µM (inactive) | 37.4 µM (inactive) | 44.7 µM | 10.1 µM (inactive) | 70.1 µM (inactive) | 21.7 µM (inactive) | 25.2 µM (inactive) | 17.5 µM (inactive) | – | 46.5 µM (inactive) | 23.5 µM (inactive) | 29.7 µM (inactive)
10 | C=C1CC(C#N)(C#N)[C@@H]2CC3CCCC3[C@H]12.C=C1CC(C#N)(C#N)[C@H]2C3CCCC3C[C@@H]12 (some centres not stated) | 20 µM (inactive) | 10 µM (inactive) | 18.3 µM (inactive) | 10.5 µM (inactive) | 29.8 µM (inactive) | 13.1 µM (inactive) | 30.1 µM (inactive) | 15.9 µM | 14 µM (inactive) | – | 25.3 µM (inactive) | 25.9 µM (inactive) | 16.8 µM (inactive) | 16.3 µM (inactive) | 10 µM (inactive) | – | –
11 | CN(Cc1ccccc1)c1cc(=O)n(C)c(=O)[nH]1 | > 100 µM (inactive) | > 100 µM (inactive) | > 100 µM (inactive) | > 100 µM (inactive) | > 100 µM (inactive) | > 100 µM (inactive) | > 100 µM (inactive) | > 100 µM | > 100 µM (inactive) | > 100 µM (inactive) | > 100 µM (inactive) | > 100 µM (inactive) | > 100 µM (inactive) | > 100 µM (inactive) | > 100 µM (inactive) | > 100 µM (inactive) | –
12 | [N-]=[N+]=CC(=O)OCCCCl | > 100 µM (inactive) | 4.37 µM (inactive) | > 100 µM (inactive) | > 100 µM (inactive) | > 100 µM (inactive) | > 100 µM (inactive) | > 100 µM (inactive) | > 100 µM | > 100 µM (inactive) | > 100 µM (inactive) | > 100 µM (inactive) | > 100 µM (inactive) | – | > 100 µM (inactive) | > 100 µM (inactive) | > 100 µM (inactive) | –
13 | CNC(=S)N/N=C1\C(=O)N(CN2CCOCC2)c2ccc([N+](=O)[O-])cc21 | 14.7 µM (inactive) | 23.4 µM (inactive) | 18.2 µM (inactive) | 15.3 µM (inactive) | 21.9 µM (inactive) | 43.6 µM (inactive) | 22.1 µM (inactive) | 12.9 µM | 40.6 µM (inactive) | 6.5 µM (inactive) | 15.8 µM (inactive) | 15.3 µM (inactive) | > 100 µM (inactive) | 20.4 µM (inactive) | 17.7 µM (inactive) | 17.4 µM (inactive) | –
